Test results published in patent publication US10584134B2, “Use of physiological cooling active ingredients, and agents containing such active ingredients” (SYMRISE AG, priority 2009, dated 2020).
Structures can show the parent of a compound that is named as a salt.

Molecular target: human TRPM8 receptor (Homo sapiens (Human), UniProt Q7Z2W7)
Assay: Assay on TRPM8 modulators (Ca2+-sensitive dye, HEK293-TRPM8 test cells, EC50 determination)
Type: cell-based
Conditions: assay according to reference example 3
Description: As a test cell system the human TRPM8 DNA (see plasmid pInd-M8 above) was used to prepare a stable transfixed HEK293 cell line. Here preference is for HEK293 which via the plasmid introduced offers the possibility of induction of the TRPM8 expression by means of tetracycline.
The agonisation or antagonisation of the receptor can be quantified by means of a Ca^2+-sensitive dye (e.g. FURA, Fluo-4, etc.).
To begin with, in a manner known per se, in cell culture flasks a fresh culture of transformed HEK cells is prepared. The HEK293-TRPM8 test cells are removed using trypsin from the cell culture flasks and 40 000 cells/well are sown with 100 μl medium in 96-well plates (Greiner #655948 Poly-D-lysine coated). In order to induce the TRPM8 receptor the growth medium tetracycline is mixed in (DMEM/HG, 10% FCS tetracycline-free, 4 mM L-glutamine, 15 μg/ml blasticidin, 100 μg/ml hygromycin B, 1 μg/ml tetracycline). The next day the cells are charged with Fluo-4Am dye and the test is performed.
The test substances are used in triplicate in concentrations of between 0.1 and 200 μm in the assay. Normally the compounds are kept ready in DMSO solutions and diluted for the assay to a maximum DMSO concentration of 2%.

Sequence of human TRPM8 receptor (Q7Z2W7 whole entry): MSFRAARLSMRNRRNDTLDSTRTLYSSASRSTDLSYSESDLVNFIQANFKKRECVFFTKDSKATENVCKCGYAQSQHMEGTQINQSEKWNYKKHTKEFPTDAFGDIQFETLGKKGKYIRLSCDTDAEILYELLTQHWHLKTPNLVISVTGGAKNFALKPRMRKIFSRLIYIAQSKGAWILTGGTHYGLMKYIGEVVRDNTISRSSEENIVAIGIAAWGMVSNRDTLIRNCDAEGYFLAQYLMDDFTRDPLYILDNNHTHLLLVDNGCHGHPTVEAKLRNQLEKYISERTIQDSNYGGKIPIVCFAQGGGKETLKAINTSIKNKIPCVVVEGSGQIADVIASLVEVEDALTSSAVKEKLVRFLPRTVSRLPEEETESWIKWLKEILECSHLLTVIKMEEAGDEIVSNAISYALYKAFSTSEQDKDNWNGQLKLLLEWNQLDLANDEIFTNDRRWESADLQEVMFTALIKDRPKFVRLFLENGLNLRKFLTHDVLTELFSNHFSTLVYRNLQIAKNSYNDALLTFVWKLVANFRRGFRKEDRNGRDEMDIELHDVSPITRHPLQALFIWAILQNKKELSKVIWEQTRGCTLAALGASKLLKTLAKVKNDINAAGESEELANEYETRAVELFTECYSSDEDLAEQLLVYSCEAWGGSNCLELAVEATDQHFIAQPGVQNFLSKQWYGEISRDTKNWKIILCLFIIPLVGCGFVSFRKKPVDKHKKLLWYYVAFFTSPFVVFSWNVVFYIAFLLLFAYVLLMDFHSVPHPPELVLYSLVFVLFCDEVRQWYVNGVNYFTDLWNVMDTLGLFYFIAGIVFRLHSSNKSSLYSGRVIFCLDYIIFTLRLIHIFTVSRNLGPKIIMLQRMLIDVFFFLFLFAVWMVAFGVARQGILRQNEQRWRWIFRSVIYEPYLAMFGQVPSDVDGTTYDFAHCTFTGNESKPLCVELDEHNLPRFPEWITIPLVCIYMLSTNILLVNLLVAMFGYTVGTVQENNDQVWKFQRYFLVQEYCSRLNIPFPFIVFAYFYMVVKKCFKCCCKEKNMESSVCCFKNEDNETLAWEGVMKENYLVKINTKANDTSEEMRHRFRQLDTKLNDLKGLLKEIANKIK

`CC[C@@H](C)Nc1nc(-c2ccccn2)ncc1OC` (stereo in doubt) [Compound 2-5, Sec-butyl-(5-methoxy-2-pyridin-2-yl-pyrimidin-4-yl)-amine] gave an EC50 (Table B, structure type 2) of 100 nM.
`O=C1CCCC2=C1C1(CC3c4ccccc4CCN23)SCCS1` (stereo not shown) [Compound 1-1, 2,3,4,5,6,10b,11,12-octahydro-spiro[4b-azachrysene-12,2′-[1,3]dithioland-]-1-one] showed an EC50 (Table A, structure type 1) of 100 nM.
Compound `CC1(C)CC(=O)C2=C(C1)N1CCc3ccccc3C1CC21SCCS1` (stereo not shown) [Compound 1-2, 2,3,4,5,6,10b,11,12-octahydro-3,3-dimethyl-spiro[4b-azachrysene-12,2′-[1,3]dithiolan]-1-one] has an EC50 (Table A, structure type 1) of 600 nM.
Compound `CC1OC(=O)C2=C1N1CCc3ccccc3C1CC21SCCS1` (stereo not shown) [Compound 1-3, 5,6,10b,11-tetrahydro-3-methyl-spiro[12H-benzo[a]furo[3,4-f]quinolizin-12,2′-[1,3]dithiolan]-1(3H)one] has an EC50 (Table A, structure type 1) of 700 nM.
With `O=C1CCCC2=C1C1(CC3c4ccccc4CCN23)SCCCS1` (stereo not shown) [Compound 1-4, 2,3,4,5,6,10b,11,12-octahydro-spiro[4b-azachrysene-12,2′-[1,3]dithian]-1-one] the EC50 (Table A, structure type 1) was 3100 nM.
In the case of `CC1(C)CC(=O)C2=C(C1)N1CCc3ccccc3C1CC21SCCCS1` (stereo not shown) [Compound 1-5, 2,3,4,5,6,10b,11,12-octahydro-3,3-dimethyl-spiro[4b-azachrysene-12,2′-[1,3]dithian]-1-one], the EC50 (Table A, structure type 1) is reported as 1400 nM.
`C[C@H]1OC(=O)C2=C1N1CCc3ccccc3C1CC21SCCCS1` (stereo partly shown) [Compound 1-6] was tested, and the EC50 (Table A, structure type 1) was 200 nM.
Work on `C[C@H]1OC(=O)C2=C1N1CCc3ccccc3C1CC21[S+]([O-])CCS1(=O)=O` (stereo partly shown) [Compound 1-7] yielded an EC50 (Table A, structure type 1) of 700 nM.
With `CC1(C)CC(=O)C2=C(C1)N1CCc3ccccc3C1CC21[S+]([O-])CCS1(=O)=O` (stereo not shown) [Compound 1-8] the EC50 (Table A, structure type 1) was 9800 nM.
`C[C@H]1OC(=O)C2=C1N1CCc3ccccc3C1CC2=O` (stereo partly shown) [Compound 1-9] showed an EC50 (Table A, structure type 1) of 10000 nM.
Compound `COc1cnc(-c2ccccn2)nc1NC(C)C` [Compound 2-1, Isopropyl-(5-methoxy-2-pyridin-2-yl-pyrimidin-4-yl)-amine] has an EC50 (Table B, structure type 2) of 100 nM.
`COc1cnc(-c2ccccn2)nc1NC1CCC1` [Compound 2-3, Cyclobutyl-(5-methoxy-2-pyridin-2-yl-pyrimidin-4-yl)-amine] was tested, and the EC50 (Table B, structure type 2) was 800 nM.
In the case of `COc1cnc(-c2ccccn2)nc1N1CCOCC1` [Compound 2-4], the EC50 (Table B, structure type 2) is reported as 1000 nM.
`COc1cnc(-c2ccccn2)nc1NC(C)CCO` (stereo not shown) [Compound 2-9] gave an EC50 (Table B, structure type 2) of 1000 nM.
`COCC(C)Nc1nc(-c2ccccn2)ncc1OC` (stereo not shown) [Compound 2-10] was tested, and the EC50 (Table B, structure type 2) was 2200 nM.
For `COc1cnc(-c2ccccn2)nc1NCC1CC1` [Compound 2-11], the EC50 (Table B, structure type 2) was 1200 nM.
Compound `COc1cnc(-c2ccccc2)nc1N1CCOCC1` [Compound 2-13] has an EC50 (Table B, structure type 2) of 11700 nM.
For `CCc1cnc(-c2ccccn2)nc1NC(C)C` [Compound 2-14, (5-ethyl-2-pyridin-2-yl-pyrimidin-4-yl)-isopropyl-amine], the EC50 (Table B, structure type 2) was 400 nM.
`COc1cnc(-c2ccccn2)nc1NC(C)C` [Compound 2-15, Isopropyl-(5-methoxy-2-pyridin-2-yl-pyrimidin-4-yl)-ammonium citrate] showed an EC50 (Table B, structure type 2) of 800 nM.
Compound `COc1cnc(-c2ccccn2)nc1NC(C)C` [Compound 2-16, Isopropyl-(5-methoxy-2-pyridin-2-yl-pyrimidin-4-yl)-ammonium fumarate] has an EC50 (Table B, structure type 2) of 1600 nM.
`COc1cnc(-c2ccccn2)nc1NC(C)C` [Compound 2-17, Isopropyl-(5-methoxy-2-pyridin-2-yl-pyrimidin-4-yl)-ammonium malate] was tested, and the EC50 (Table B, structure type 2) was 400 nM.
Compound `COc1cnc(-c2ccccn2)nc1NC(C)C` [Compound 2-18, Isopropyl-(5-methoxy-2-pyridin-2-yl-pyrimidin-4-yl)-ammonium tartrate] has an EC50 (Table B, structure type 2) of 500 nM.
Compound `COc1cnc(-c2ccccn2)nc1NC(C)C` [Compound 2-19, Isopropyl-(5-methoxy-2-pyridin-2-yl-pyrimidin-4-yl)-ammonium succinate] has an EC50 (Table B, structure type 2) of 300 nM.
For `COc1cnc(-c2ccccn2)nc1NC(C)C` [Compound 2-20], the EC50 (Table B, structure type 2) was 900 nM.
Compound `COc1cnc(-c2ccccn2)nc1NC(C)C` [Compound 2-22] has an EC50 (Table B, structure type 2) of 700 nM.
